Measured values taken from patent US20220313698A1, “MODULATORS OF CYSTIC FIBROSIS TRANSMEMBRANE CONDUCTANCE REGULATOR” (Vertex Pharmaceuticals Incorporated, priority 2019, published 2022).
pEC50: −log10 of the molar value.

Molecular target: CFTR-mediated chloride transport (Homo sapiens, UniProt P13569)
Assay: Corrector Assay A - membrane potential dye assay (enteroid cells)
Conditions: for Corrector Assay A % activity: % of chloride transport of triple combination control (1 μM (14S)-dispiro macrocycle + 3 μM tezacaftor + 300 nM ivacaftor); for pEC50: read-out: Corrector Assay A EC50, human intestinal enteroid cells, 18-24 h incubation, acute 10 μM forskolin + 300 nM ivacaftor
Procedure: Base medium (ADF+++) consisted of Advanced DMEM/Ham's F12, 2 mM Glutamax, 10 mM HEPES, 1 μg/ml penicillin/streptomycin.
Intestinal enteroid maintenance medium (IEMM) consisted of ADF+++, 1×B27 supplement, 1×N2 supplement, 1.25 mM N-acetyl cysteine, 10 mM Nicotinamide, 50 ng/mL hEGF, 10 nM Gastrin, 1 μg/mL hR-spondin-1, 100 ng/mL hNoggin, TGF-b type 1 inhibitor A-83-01, 100 μg/mL Primocin, 10 μM P38 MAPK inhibitor SB202190.
Bath 1 Buffer consisted of 1 mM MgCl2, 160 mM NaCl, 4.5 mM KCl, 10 mM HEPES, 10 mM Glucose, 2 mM CaCl2).
Chloride Free Buffer consisted of 1 mM Magnesium Gluconate, 2 mM Calcium Gluconate, 4.5 mM Potassium Gluconate, 160 mM Sodium Gluconate, 10 mM HEPES, 10 mM Glucose.
Bath 1 Dye Solution consisted of Bath 1 Buffer, 0.04% Pluronic F127, 20 μM Methyl Oxonol, 30 μM CaCCinh-A01, 30 μM Chicago Sky Blue.
Chloride Free Dye Solution consisted of Chloride Free Buffer, 0.04% Pluronic F127, 20 μM Methyl Oxonol, 30 μM CaCCinh-A01, 30 μM Chicago Sky Blue.
Chloride Free Dye Stimulation Solution consisted of Chloride Free Dye Solution, 10 μM forskolin, 100 μM IBMX, and 300 nM Ivacaftor.
Cells were recovered in cell recovery solution, collected by centrifugation at 650 rpm for 5 min at 4° C., resuspended in TryPLE and incubated for 5 min at 37° C. Cells were then collected by centrifugation at 650 rpm for 5 min at 4° C. and resuspended in IEMM containing 10 μM ROCK inhibitor (RI). The cell suspension was passed through a 40 μm cell strainer and resuspended at 1×10^6 cells/mL in IEMM containing 10 μM RI. Cells were seeded at 5000 cells/well into multi-well plates and incubated for overnight at 37° C., 95% humidity and 5% CO2 prior to assay.
Briefly, cells were washed 5 times in Bath 1 Buffer. Bath 1 Dye Solution was added and the cells were incubated for 25 min at room temperature. Following dye incubation, cells were washed 3 times in Chloride Free Dye Solution. Chloride transport was initiated by addition of Chloride Free Dye Stimulation Solution and the fluorescence signal was read for 15 min. The CFTR-mediated chloride transport for each condition was determined from the AUC of the fluorescence response to acute forskolin and 300 nM N-[2,4-bis(1,1-dimethylethyl)-5-hydroxyphenyl]-1,4-dihydro-4-oxoquinoline-3-carboxamide stimulation. Chloride transport was then expressed as a percentage of the chloride transport following treatment with 1 μM (14S)-8-[3-(2-{Dispiro[2.0.2.1]heptan-7-yl}ethoxy)-1H-pyrazol-1-yl]-12,12-dimethyl-2λ^6-thia-3,9,11,18,23-pentaazatetracyclo[17.3.1.111,14.05,10]tetracosa-1(22),5,7,9,19(23),20-hexaene-2,2,4-trione, 3 μM (R)-1-(2,2-difluorobenzo[d][1,3]dioxol-5-yl)-N-(1-(2,3-dihydroxypropyl)-6-fluoro-2-(1-hydroxy-2-methylpropan-2-yl)-1H-indol-5-yl)cyclopropanecarboxamide and 300 nM acute N-[2,4-bis(1,1-dimethylethyl)-5-hydroxyphenyl]-1,4-dihydro-4-oxoquinoline-3-carboxamide triple combination control (% Activity).

| Structure (SMILES) | Corrector Assay A % activity | pEC50 |
| --- | --- | --- |
| CC(C)(C)c1ccc2c(n1)N1C[C@@H](CCC(CCCC(=O)O)Nc3cccc(n3)S(=O)(=O)NC2=O)CC1(C)C (stereo partly drawn) [Compound 19, 4-[(14S)-8-tert-Butyl-12,12-dimethyl-2,2,4-trioxo-2λ^6-thia-3,9,11,18,23-pentaazatetracyclo[17.3.1.111,14.05,10]tetracosa-1(23),5(10),6,8,19,21-hexaen-17-yl]butanoic acid] | +++ (+++ is >60%) | 5.52 to 6.00 |
| CC(C)(C)c1ccc2c(n1)N1C[C@@H](CCC(c3ccc(C4CC(F)(F)C4)cn3)Nc3cccc(n3)S(=O)(=O)NC2=O)CC1(C)C (stereo partly drawn) [Compound 21] | +++ (+++ is >60%) | > 6.00 |
| CC(C)(C)c1ccc2c(n1)N1C[C@@H](CCC(c3ccc(C4COC4)cn3)Nc3cccc(n3)S(=O)(=O)NC2=O)CC1(C)C (stereo partly drawn) [Compound 29, (14S)-8-tert-butyl-12,12-dimethyl-17-[5-(oxetan-3-yl)pyridin-2-yl]-2λ^6-thia-3,9,11,18,23-pentaazatetracyclo[17.3.1.111,14.05,10]tetracosa-1(23),5(10),6,8,19,21-hexaene-2,2,4-trione] | +++ (+++ is >60%) | > 6.00 |
| CC(C)(C)c1ccc2c(n1)N1C[C@@H](CC[C@H](c3cccc(CNCC(F)(F)F)n3)Nc3cccc(n3)S(=O)(=O)NC2=O)CC1(C)C [Compound 50, (14S,17R)-8-tert-Butyl-12,12-dimethyl-17-(6-{[(2,2,2-trifluoroethyl)amino]methyl}pyridin-2-yl)-2λ^6-thia-3,9,11,18,23-pentaazatetracyclo[17.3.1.111,14.05,10]tetracosa-1(22),5,7,9,19(23),20-hexaene-2,2,4-trione] | +++ (+++ is >60%) | 5.52 to 6.00 |
| CC(C)(C)c1ccc2c(n1)N1C[C@@H](CCC(c3ccc(N)cn3)Nc3cccc(n3)S(=O)(=O)NC2=O)CC1(C)C (stereo partly drawn) [Compound 63] | +++ (+++ is >60%) | > 6.00 |
| CC(C)(C)c1ccc2c(n1)N1C[C@@H](CC[C@H](c3cccc(-c4cn[nH]c4)n3)Nc3cccc(n3)S(=O)(=O)NC2=O)CC1(C)C [Compound 67] | +++ (+++ is >60%) | > 6.00 |
| CC(C)(C)c1ccc2c(n1)N1C[C@@H](CC[C@H](c3cccc(C(N)=O)n3)Nc3cccc(n3)S(=O)(=O)NC2=O)CC1(C)C [Compound 70, 6-[(14S,17R)-8-tert-butyl-12,12-dimethyl-2,2,4-trioxo-2λ^6-thia-3,9,11,18,23-pentaazatetracyclo[17.3.1.111,14.05,10]tetracosa-1(22),5,7,9,19(23),20-hexaen-17-yl]pyridine-2-carboxamide] | ++ (++ is 30-60%) | > 6.00 |

Next, values leading:

| Corrector Assay A % activity | pEC50 | Structure (SMILES) |
| --- | --- | --- |
| ++ (++ is 30-60%) | > 6.00 | Cn1nccc1-c1ccc(C2CC[C@@H]3CN(c4nc(C(C)(C)C)ccc4C(=O)NS(=O)(=O)c4cccc(n4)N2)C(C)(C)C3)nc1 (stereo partly drawn) [Compound 57] |
| +++ (+++ is >60%) | > 6.00 | Cn1nccc1-c1ccc(C2CC[C@@H]3CN(c4nc(C(C)(C)C)ccc4C(=O)NS(=O)(=O)c4cccc(n4)N2)C(C)(C)C3)nc1 (stereo partly drawn) [Compound 58] |
| + (+ is <30%) | > 6.00 | Cn1ccc(-c2ccc(C3CC[C@@H]4CN(c5nc(C(C)(C)C)ccc5C(=O)NS(=O)(=O)c5cccc(n5)N3)C(C)(C)C4)nc2)n1 (stereo partly drawn) [Compound 59] |
| +++ (+++ is >60%) | > 6.00 | Cn1ccc(-c2ccc(C3CC[C@@H]4CN(c5nc(C(C)(C)C)ccc5C(=O)NS(=O)(=O)c5cccc(n5)N3)C(C)(C)C4)nc2)n1 (stereo partly drawn) [Compound 60] |
| ++ (++ is 30-60%) | > 6.00 | CC(C)(C)c1ccc2c(n1)N1C[C@@H](CCC(c3ccc(N)cn3)Nc3cccc(n3)S(=O)(=O)NC2=O)CC1(C)C (stereo partly drawn) [Compound 64, (14S)-17-(5-aminopyridin-2-yl)-8-tert-butyl-12,12-dimethyl-2λ^6-thia-3,9,11,18,23-pentaazatetracyclo[17.3.1.111,14.05,10]tetracosa-1(23),5(10),6,8,19,21-hexaene-2,2,4-trione] |
